{
  "source": "patent US4181717A",
  "about": "“Ovulation enhancing peptides” (Research Corporation, priority 1978, dated 1980)",
  "system": "hamsters",
  "test": "Ovulation enhancement study in hamsters (ova count after 4 days of subcutaneous dosing)",
  "assay_type": "in vivo",
  "settings": "ova counted on fifth day, untreated control mean 11.3",
  "procedure": "In one study carried out with hamsters utilizing H--Thr--Arg--Lys--Arg--OH diacetate, each of six animals was injected subcutaneously at various dosage levels as indicated in the Table for each of the four days of the estrous cycle. On the fifth day, the animals were sacrificed, the left and right ovaries and oviducts of each animal collected, sectioned, stained, and the ova counted. The figures given in the second column are the mean numbers of ova for six animals at each dosage level. In a control group of 20 animals which were not treated with the ovulation enhancing compound, the mean number of ova counted under similar conditions was 11.3.",
  "note": "Residues, ends and D or L forms follow the SMILES beside them.",
  "data": [
    {"molecule": "C[C@@H](O)[C@H](N)C(=O)N[C@@H](CCCNC(=N)N)C(=O)N[C@@H](CCCCN)C(=O)N[C@@H](CCCNC(=N)N)C(=O)O", "note": "[H--Thr--Arg--Lys--Arg--OH diacetate, H--Thr--Arg--Lys--Arg--OH] (H-TRKR-OH)", "values": [
      {"measurement": "Number of OVA (mean number of ova for six animals)", "setting": "0.10 μgm/100 gm/day on each of the four days of the estrous cycle", "result": 13.7},
      {"measurement": "Number of OVA (mean number of ova for six animals)", "setting": "0.30 μgm/100 gm/day on each of the four days of the estrous cycle", "result": 14.1},
      {"measurement": "Number of OVA (mean number of ova for six animals)", "setting": "3.00 μgm/100 gm/day on each of the four days of the estrous cycle", "result": 15.5},
      {"measurement": "Number of OVA (mean number of ova for six animals)", "setting": "30.00 μgm/100 gm/day on each of the four days of the estrous cycle", "result": 15.6}
    ]}
  ]
}
